Assay results reported in PubChem BioAssay (NCI).
Several values for one entry are separate records, joined by “and”; a condition that tells them apart may be missing. Identical values can stand only once.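 All cell lines were grown in 96-well plates and treated with compound for 48 hours. Abbreviation: GI50, concentration required for 50% inhibition of growth. TGI: total growth inhibition.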

Legend:
Assay in all cases: inhibition of tumour cell growth, NCI panel, 48 h
[1] = tested on: OVCAR-8 ovarian
[2] = tested on: SW-620 colon
[3] = tested on: U251 CNS
[4] = tested on: MDA-MB-435
[5] = tested on: MCF7 breast
[6] = tested on: HCT-15 colon
[7] = tested on: SF-268 CNS
[8] = tested on: PC-3 prostate
[9] = tested on: SNB-75 CNS
[10] = tested on: A498 renal

Row | SMILES | GI50 [1] [µM] | TGI [1] [µM] | GI50 [2] | TGI [2] [µM] | GI50 [3] [µM] | TGI [3] [µM] | GI50 [4] | TGI [4] [µM] | GI50 [5] | TGI [5] [µM] | GI50 [6] | TGI [6] [µM] | GI50 [7] [µM] | TGI [7] [µM] | GI50 [8] [µM] | TGI [8] [µM] | GI50 [9] [µM] | TGI [9] [µM] | GI50 [10] | TGI [10]
1 | CCN1C(=O)N(c2ccccc2)C2NC(=S)N(/N=C/C=C/c3ccccc3)C21 (stereo not given) | 0.429 | > 100 | 0.38 µM | > 100 | 0.44 | > 100 | 0.0314 µM | 0.216 | 0.193 µM | > 100 | 0.293 µM | > 100 | 1.02 | > 100 | 0.394 | > 100 | > 100 | > 100 | 0.105 µM | 0.699 µM
2 | Oc1[nH]c2c(Br)cccc2c1C1=Nc2ccccc2/C1=N/OCCN1CCCC1 | 0.792 |  | 1.49 µM and 0.542 µM |  | 1.09 | 2.77 | 1.58 µM and 1.91 µM | > 100 | 0.781 µM and 0.57 µM | > 100 | 0.719 µM and 0.496 µM |  | 0.813 |  | 0.824 |  | 1.14 | 3.64 | 0.739 µM and 1.34 µM | 2.21 µM and 7.36 µM
3 | CC(=O)OCC(=O)[C@@]12OC(C)(C)O[C@@H]1C[C@H]1[C@@H]3CC=C4C[C@@H](O)CC[C@]4(C)[C@H]3CC[C@@]12C |  | > 100 |  | > 100 |  | > 100 |  | > 100 |  | > 100 |  | > 100 |  | > 100 |  | > 100 |  | 29.4 |  | > 100 µM
4 | CC(NCCC(=O)N(CCC(=O)N(CCC(=O)N(CCC(=O)N(CCC(=O)N(CCC(=O)N(CCC(=O)N(CCC(=O)N(CCC(=O)N(CCC(=O)O)[C@H](C)c1ccccc1)[C@H](C)c1ccccc1)[C@H](C)c1ccccc1)[C@H](C)c1ccccc1)[C@H](C)c1ccccc1)[C@H](C)c1ccccc1)[C@H](C)c1ccccc1)[C@H](C)c1ccccc1)[C@H](C)c1ccccc1)c1ccccc1 (stereo not given in full) | 3.45 | > 47.1 | 2.91 µM | > 35 | 2.82 | 11.1 | 1.71 µM | > 16.1 | 2.03 µM | > 26.1 | 3.22 µM | > 27 | 2.45 | > 38.7 | 2.66 | > 75 | 2.2 | 41.1 | 2.37 µM | 11.8 µM
5 | CCC[CH2][Sn]([CH2]CCC)([CH2]CCC)[O]C(=O)c1ccc(Cl)cc1Cl | 0.183 | 0.373 | 0.158 µM | 0.335 | 0.17 | 0.33 | 0.16 µM | 0.335 | 0.137 µM | 0.278 | 0.173 µM | 0.419 | 0.134 | 0.283 | 0.202 | 0.471 | 0.117 | 0.248 | 0.11 µM | 0.236 µM
6 | O=C1C2C(c3ccccc3)NC(c3ccccc3)C1C(c1ccccc1)NC2c1ccccc1 (stereo not given) |  | > 100 |  | > 100 |  | > 100 |  | > 100 |  | > 100 |  | > 100 |  | > 100 |  | > 100 |  | > 100 |  | > 100 µM
7 | C=C1C(=O)O[C@H]2[C@H](OC(C)=O)[C@@H](C)CCC/C(C)=C/CC[C@@]3(C)O[C@@H]3C[C@@H]12 |  | 2.63 |  | > 23.1 |  | 21.7 |  | 15.1 |  | 7.71 |  | 10.1 |  | 14 |  | > 47.5 |  | 21.2 |  | 8.76 µM
8 | O=C(Nc1ccc2[nH]c(=S)sc2c1)Nc1ccccc1F | 56.5 | > 100 | 43.1 µM | > 100 | 57.5 | > 100 | 23.1 µM | > 100 | 36.7 µM | > 100 | 20.4 µM | > 100 | 38.2 | > 100 | 21.5 | > 100 | 22.9 | > 100 | 40.5 µM | > 100 µM
9 | O=P(CCCCP(=O)(c1ccccc1)c1ccccc1)(c1ccccc1)c1ccccc1.[Cl][Sn]([Cl])([c]1ccccc1)[c]1ccccc1 | 2.3 | 6.28 | 0.696 µM | 5.59 | 2 | 4.77 | 1.77 µM | 3.91 | 0.876 µM | 2.64 | 1.23 µM | 3.02 | 1.75 | 4.05 | 2.29 | 6.04 | 1.57 | 3.29 | 2 µM | 3.76 µM
10 | CN(C)CC1C(=O)O[C@H]2[C@H]1CC/C(COC(=O)c1cc3ccccc3[nH]1)=C\CC[C@@]1(C)O[C@@H]21 (stereo not given in full) | 2.13 | 7.48 | 1.75 µM | 4.41 | 2.3 | 5.71 | 1.49 µM | 3.2 | 1.01 µM | 4.55 | 0.629 µM | 2.28 | 1.65 | 3.43 | 2.14 | 5.86 | 2.18 | 10.4 | 11.1 µM | 23.9 µM
11 | CN(C)CCCN1c2ccccc2C(C)(C)c2ccccc21 |  | 29.8 |  | 52.4 |  | 24.9 |  | 27.4 |  | 28 |  | 29.8 |  | 27.2 |  | 26.6 |  | 24.4 |  | 23 µM
12 | Cc1cc(NCc2cc(Nc3ccnc4cc(Cl)ccc34)ccc2F)nc(N2CCN(C)CC2)n1 | 3.14 | 12.9 | 1.63 µM | 4.23 | 1.78 | 4.46 | 1.52 µM | 2.96 | 1.94 µM | 5.65 | 1.34 µM | 3.45 | 1.81 | 4.53 | 1.92 | 7.97 | 1.21 | 3.16 | 1.54 µM | 3.22 µM
13 | COc1cc(/C=N/NC(=O)c2cnn3c2NC(c2ccccc2)C3)ccc1Oc1ccccc1 (stereo not given) | 2.57 | 12.2 | 0.868 µM | 10.1 | 1.31 | 3.59 | 0.293 µM | 1.43 | 0.436 µM | 10.2 | 0.559 µM | 3.15 | 2.46 | 14.6 | 0.875 | 3.59 | 1.3 | 3.41 | 1.18 µM | 7.03 µM
14 | CC(C)COCC(CN(Cc1ccccc1)c1ccccc1)N1CCCC1 (stereo not given) | 3.75 | 14.9 | 3.54 µM | 15.2 | 3.24 | 13.3 | 3.46 µM | 13.8 | 2.06 µM | 4.78 | 3.15 µM | 15.2 | 4.01 | 16.1 | 3.04 | 13.9 | 3.47 | 17.6 | 1.03 µM | 10.4 µM
15 | CCN1Cc2c(ccc(F)c2C#N)O[C@@H](C)CNC(=O)c2c(N)nn3ccc1nc23 | 4.33 | > 100 | 3.87 µM | 80.2 | 5.34 | 32.4 | 2.74 µM | 20.2 | 3.23 µM | 31.1 | 2.46 µM | 14.9 | 3.26 | 20.3 | 1.64 | 26.6 | 0.465 | 3.82 | 0.712 µM | 3.9 µM
16 | CN1C(=O)C(CC(=O)O)NC1=S (stereo not given) |  | > 100 |  | > 100 |  | > 100 |  | > 100 |  | > 100 |  | > 100 |  | > 100 |  | > 100 |  | > 100 |  | > 100 µM
17 | OC(CNCC1CCCO1)Cn1c2ccc(Cl)cc2c2cc(Cl)ccc21 (stereo not given) | 2.02 | 4.22 | 1.7 µM | 3.38 | 1.65 | 3.05 | 1.66 µM | 3.02 | 1.72 µM | 3.25 | 1.67 µM | 3.26 | 1.87 | 3.77 | 1.93 | 3.74 | 1.39 | 2.87 | 1.06 µM | 8.83 µM
